How the values were obtained:
Test in all cases: relative viability (nuclei count vs DMSO), 5 days (fraction); higher = more cells survive
[1] = test system: BEN
Outline: (§1)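 Five library-drug doses in √10 steps were combined with a fixed anchor-drug dose, or a single drug was given alone, by pin tool to lung cancer cell lines in 1536-well plates the day after seeding. Nuclei were stained and counted after 5 days. Relative viability is the nuclei count in treated wells over that in vehicle wells, taken as the median of duplicate plates.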

[2] = test system: EPLC-272H
Outline: as §1

[3] = test system: HCC-827
Outline: as §1

[4] = test system: HOP-62
Outline: as §1

[5] = test system: LU99A
Outline: as §1

[6] = test system: LXF-289
Outline: as §1

[7] = test system: NCI-H1437
Outline: as §1

[8] = test system: NCI-H1666
Outline: as §1

[9] = test system: NCI-H1915
Outline: as §1

[10] = test system: NCI-H2170
Outline: as §1

[11] = test system: NCI-H2228
Outline: as §1

[12] = test system: NCI-H2347
Outline: as §1

[13] = test system: NCI-H23
Outline: as §1

[14] = test system: NCI-H322M
Outline: as §1

[15] = test system: NCI-H441
Outline: as §1

[16] = test system: NCI-H647
Outline: as §1

[17] = test system: NCI-H727
Outline: as §1

[18] = test system: SK-MES-1
Outline: as §1

[19] = test system: SW 1573
Outline: as §1

## C=C1C(=O)O[C@@H](CCCCCCCC)[C@@H]1C(=O)O [C-75] + CC1(C)CCC(c2ccc(Cl)cc2)=C(CN2CCN(c3ccc(C(=O)NS(=O)(=O)c4ccc(N[C@H](CCN5CCOCC5)CSc5ccccc5)c(S(=O)(=O)C(F)(F)F)c4)cc3)CC2)C1 [Navitoclax] (partner 0.5 µM)
[1]; first compound 0.08 µM
  relative viability: 0.0695
[1]; first compound 0.253 µM
  relative viability: 0.0673
[1]; first compound 0.8 µM
  relative viability: 0.0656
[1]; first compound 2.53 µM
  relative viability: 0.0589
[1]; first compound 8 µM
  relative viability: 0.0596
[2]; first compound 0.08 µM
  relative viability: 1.22
[2]; first compound 0.253 µM
  relative viability: 1.03
[2]; first compound 0.8 µM
  relative viability: 1.21
[2]; first compound 2.53 µM
  relative viability: 0.856
[2]; first compound 8 µM
  relative viability: 0.961
[3]; first compound 0.08 µM
  relative viability: 1.02
[3]; first compound 0.253 µM
  relative viability: 0.884
[3]; first compound 0.8 µM
  relative viability: 0.952
[3]; first compound 2.53 µM
  relative viability: 0.985
[3]; first compound 8 µM
  relative viability: 1.04
[4]; first compound 0.08 µM
  relative viability: 1.02
[4]; first compound 0.253 µM
  relative viability: 1.25
[4]; first compound 0.8 µM
  relative viability: 1.04
[4]; first compound 2.53 µM
  relative viability: 0.889
[4]; first compound 8 µM
  relative viability: 0.857
[5]; first compound 0.08 µM
  relative viability: 0.795
[5]; first compound 0.253 µM
  relative viability: 0.845
[5]; first compound 0.8 µM
  relative viability: 0.695
[5]; first compound 2.53 µM
  relative viability: 0.588
[5]; first compound 8 µM
  relative viability: 0.594
[6]; first compound 0.08 µM
  relative viability: 0.896
[6]; first compound 0.253 µM
  relative viability: 0.999
[6]; first compound 0.8 µM
  relative viability: 0.91
[6]; first compound 2.53 µM
  relative viability: 0.873
[6]; first compound 8 µM
  relative viability: 0.928
[7]; first compound 0.08 µM
  relative viability: 1.06
[7]; first compound 0.253 µM
  relative viability: 1.13
[7]; first compound 0.8 µM
  relative viability: 1.09
[7]; first compound 2.53 µM
  relative viability: 1.09
[7]; first compound 8 µM
  relative viability: 1.08
[8]; first compound 0.08 µM
  relative viability: 0.94
[8]; first compound 0.253 µM
  relative viability: 1.19
[8]; first compound 0.8 µM
  relative viability: 0.742
[8]; first compound 2.53 µM
  relative viability: 0.891
[8]; first compound 8 µM
  relative viability: 0.567
[9]; first compound 0.08 µM
  relative viability: 0.818
[9]; first compound 0.253 µM
  relative viability: 0.785
[9]; first compound 0.8 µM
  relative viability: 0.774
[9]; first compound 2.53 µM
  relative viability: 0.386
[9]; first compound 8 µM
  relative viability: 0.781
[10]; first compound 0.08 µM
  relative viability: 0.71
[10]; first compound 0.253 µM
  relative viability: 0.641
[10]; first compound 0.8 µM
  relative viability: 0.556
[10]; first compound 2.53 µM
  relative viability: 0.525
[10]; first compound 8 µM
  relative viability: 0.586
[11]; first compound 0.08 µM
  relative viability: 1.04
[11]; first compound 0.253 µM
  relative viability: 1.21
[11]; first compound 0.8 µM
  relative viability: 0.707
[11]; first compound 2.53 µM
  relative viability: 0.973
[11]; first compound 8 µM
  relative viability: 0.75
[12]; first compound 0.08 µM
  relative viability: 0.688
[12]; first compound 0.253 µM
  relative viability: 1.03
[12]; first compound 0.8 µM
  relative viability: 0.755
[12]; first compound 2.53 µM
  relative viability: 0.758
[12]; first compound 8 µM
  relative viability: 0.714
[13]; first compound 0.08 µM
  relative viability: 0.801
[13]; first compound 0.253 µM
  relative viability: 1.01
[13]; first compound 0.8 µM
  relative viability: 0.666
[13]; first compound 2.53 µM
  relative viability: 0.672
[13]; first compound 8 µM
  relative viability: 0.717
[14]; first compound 0.08 µM
  relative viability: 1.18
[14]; first compound 0.253 µM
  relative viability: 1.54
[14]; first compound 0.8 µM
  relative viability: 1.28
[14]; first compound 2.53 µM
  relative viability: 1.12
[14]; first compound 8 µM
  relative viability: 1.29
[15]; first compound 0.08 µM
  relative viability: 0.566
[15]; first compound 0.253 µM
  relative viability: 0.618
[15]; first compound 0.8 µM
  relative viability: 0.599
[15]; first compound 2.53 µM
  relative viability: 0.401
[15]; first compound 8 µM
  relative viability: 0.488
[16]; first compound 0.08 µM
  relative viability: 1.12
[16]; first compound 0.253 µM
  relative viability: 1.05
[16]; first compound 2.53 µM
  relative viability: 0.875
[16]; first compound 8 µM
  relative viability: 0.857
[17]; first compound 0.08 µM
  relative viability: 0.464
[17]; first compound 0.253 µM
  relative viability: 0.62
[17]; first compound 0.8 µM
  relative viability: 0.436
[17]; first compound 2.53 µM
  relative viability: 0.377
[17]; first compound 8 µM
  relative viability: 0.319
[18]; first compound 0.08 µM
  relative viability: 1.31
[18]; first compound 0.253 µM
  relative viability: 1.23
[18]; first compound 0.8 µM
  relative viability: 1.16
[18]; first compound 2.53 µM
  relative viability: 1.21
[18]; first compound 8 µM
  relative viability: 1.17
[19]; first compound 0.08 µM
  relative viability: 1.01
[19]; first compound 0.253 µM
  relative viability: 0.969
[19]; first compound 0.8 µM
  relative viability: 1.21
[19]; first compound 2.53 µM
  relative viability: 1.06
[19]; first compound 8 µM
  relative viability: 0.875

Reference: the supplement of paper PMC10307832
